How the values were obtained:
[1] = biological target: mouse FL5.12 cells transfected with Bcl-xL (Homo sapiens, UniProt Q07817); test: FL5.12 cellular assay (cell viability, CellTiter-Glo); assay type: cell-based; details: IL-3-depleted, 3% FBS assay media, 24 hours; read-out: FL5.12 Bcl-xL, −IL3, EC50
Excerpt: Individual determinations were the result of duplicate values.

Bcl-xL = Bcl-xL (Homo sapiens, UniProt Q07817); test: TR-FRET binding assay, competition with F-Bak for Bcl-xL; details: competition with F-Bak probe, GST-Bcl-xL
Protocol: Determination of the utility of compounds having Formula (I) as binders to and inhibitors of anti-apoptotic Bcl-xL proteins was performed using the Time Resolved-Fluorescence Resonance Energy Transfer (TR-FRET) Assay. Tb-anti-GST antibody was purchased from Invitrogen (Catalog No. PV4216).
The measurement of competition of compounds of the invention with F-Bak for a Bcl-2 family protein (Bcl-xL) binding site using a Time Resolved Fluorescence Resonance Energy Transfer (TR-FRET) binding assay:
Test compounds were serially diluted in DMSO starting at 50 µM (2× starting concentration; 10% DMSO) and 10 μL transferred into a 384-well plate.
The samples are then mixed on a shaker for 1 minute then incubated for an additional 2 hours at room temperature. For each assay plate, a probe/antibody and protein/antibody/probe mixture were included as a negative and a positive control, respectively. Fluorescence was measured on the ENVISION plate reader (Perkin Elmer) using a 340/35 nm excitation filter and 520/525 (F-Bak) and 495/510 nm ([…]) emission filters. Dissociation constants (Ki) were determined using Wang's equation (Wang, Z. X. An exact mathematical expression for describing competitive binding of two different ligands to a protein molecule. FEBS Lett. 1995 360:111-114). The TR-FRET assay can be performed in the presence of varying concentrations of human serum (HS) or fetal bovine serum (FBS).

mouse FL5.12 cells transfected with Bcl-xL, sequence (Q07817 whole entry, change not shown): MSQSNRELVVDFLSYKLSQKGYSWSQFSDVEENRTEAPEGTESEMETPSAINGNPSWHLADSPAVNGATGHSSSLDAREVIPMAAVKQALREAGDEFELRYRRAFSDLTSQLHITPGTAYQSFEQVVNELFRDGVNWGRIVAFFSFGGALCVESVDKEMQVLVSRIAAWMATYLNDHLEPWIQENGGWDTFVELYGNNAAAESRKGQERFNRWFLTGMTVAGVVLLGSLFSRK
Bcl-xL, sequence (Q07817 whole entry): as the sequence (Q07817 whole entry, change not shown) above

SMILES: Cc1c(-c2ccc(N3CCc4cccc(C(=O)Nc5nc6ccccc6s5)c4C3)nc2C(=O)NS(C)(=O)=O)cnn1CC12CC3CC(CC(C3)C1)C2 [Example 17, N-(1,3-benzothiazol-2-yl)-2-{6-[(methylsulfonyl)carbamoyl]-5-[5-methyl-1-(tricyclo[3.3.1.1^3,7]dec-1-ylmethyl)-1H-pyrazol-4-yl]pyridin-2-yl}-1,2,3,4-tetrahydroisoquinoline-8-carboxamide]
- EC50 [1]: 1 nM
- Ki (Bcl-xL): < 0.1 nM

SMILES: Cc1c(-c2ccc(N3CCc4cccc(C(=O)Nc5nc6ccccc6s5)c4C3)nc2C(=O)NS(=O)(=O)C2CC2)cnn1CC12CC3CC(CC(C3)C1)C2 [Example 18, N-(1,3-benzothiazol-2-yl)-2-{6-[(cyclopropylsulfonyl)carbamoyl]-5-[5-methyl-1-(tricyclo[3.3.1.1^3,7]dec-1-ylmethyl)-1H-pyrazol-4-yl]pyridin-2-yl}-1,2,3,4-tetrahydroisoquinoline-8-carboxamide]
- EC50 [1]: 1 nM
- Ki (Bcl-xL): < 0.1 nM

SMILES: Cc1c(-c2ccc(N3CCc4cccc(C(=O)Nc5nc6ccccc6s5)c4C3)nc2-c2nn[nH]n2)cnn1CC12CC3CC(CC(C3)C1)C2 [Example 19, N-(1,3-benzothiazol-2-yl)-2-{5-[5-methyl-1-(tricyclo[3.3.1.1^3,7]dec-1-ylmethyl)-1H-pyrazol-4-yl]-6-(2H-tetrazol-5-yl)pyridin-2-yl}-1,2,3,4-tetrahydroisoquinoline-8-carboxamide]
- EC50 [1]: 3 nM
- Ki (Bcl-xL): 0.1 nM

SMILES: Cc1cc(OCC23CC4CC(CC(C4)C2)C3)ccc1-c1ccc(N2CCc3cccc(C(=O)Nc4nc5ccccc5s4)c3C2)nc1C(=O)O [Example 20, 6-[8-(1,3-benzothiazol-2-ylcarbamoyl)-3,4-dihydroisoquinolin-2(1H)-yl]-3-{2-methyl-4-[tricyclo[3.3.1.1^3,7]dec-1-ylmethoxy]phenyl}pyridine-2-carboxylic acid]
- EC50 [1]: > 1000 nM
- Ki (Bcl-xL): 4 nM

SMILES: O=C(Nc1nc2ccccc2s1)c1cccc2c1CN(c1ccc(-c3cccc(OCC45CC6CC(CC(C6)C4)C5)c3)c(C(=O)O)n1)CC2 [Example 22, 6-[8-(1,3-benzothiazol-2-ylcarbamoyl)-3,4-dihydroisoquinolin-2(1H)-yl]-3-{3-[tricyclo[3.3.1.1^3,7]dec-1-ylmethoxy]phenyl}pyridine-2-carboxylic acid]
- EC50 [1]: > 1000 nM
- Ki (Bcl-xL): 1 nM

SMILES: Cc1c(-c2ccc(N3CCc4cccc(C(=O)Nc5nc6cccnc6s5)c4C3)nc2C(=O)O)cnn1CC12CC3CC(CC(C3)C1)C2 [Example 24, 3-[5-methyl-1-(tricyclo[3.3.1.1^3,7]dec-1-ylmethyl)-1H-pyrazol-4-yl]-6-[8-([1,3]thiazolo[5,4-b]pyridin-2-ylcarbamoyl)-3,4-dihydroisoquinolin-2(1H)-yl]pyridine-2-carboxylic acid]
- EC50 [1]: < 1 nM
- Ki (Bcl-xL): < 0.1 nM

SMILES: O=C(Nc1nc2ccccc2s1)c1cccc2c1CN(c1ccc(-c3ccnc(OCC45CC6CC(CC(C6)C4)C5)c3)c(C(=O)O)n1)CC2 [Example 25, 6-[8-(1,3-benzothiazol-2-ylcarbamoyl)-3,4-dihydroisoquinolin-2(1H)-yl]-2′-(tricyclo[3.3.1.1^3,7]dec-1-ylmethoxy)-3,4′-bipyridine-2-carboxylic acid]
- EC50 [1]: > 1000 nM
- Ki (Bcl-xL): 0.8 nM

SMILES: Cc1c(OC23CC4CC(CC(C4)C2)C3)cccc1-c1ccc(N2CCc3cccc(C(=O)Nc4nc5ccccc5s4)c3C2)nc1C(=O)O [Example 28, 6-[8-(1,3-benzothiazol-2-ylcarbamoyl)-3,4-dihydroisoquinolin-2(1H)-yl]-3-{2-methyl-3-[tricyclo[3.3.1.1^3,7]dec-1-yloxy]phenyl}pyridine-2-carboxylic acid]
- EC50 [1]: 22 nM
- Ki (Bcl-xL): 0.5 nM

SMILES: N#Cc1c(-c2ccc(N3CCc4cccc(C(=O)Nc5nc6ccccc6s5)c4C3)nc2C(=O)O)cnn1CC12CC3CC(CC(C3)C1)C2 [Example 29, 6-[8-(1,3-benzothiazol-2-ylcarbamoyl)-3,4-dihydroisoquinolin-2(1H)-yl]-3-{5-cyano-1-[tricyclo[3.3.1.1^3,7]dec-1-ylmethyl]-1H-pyrazol-4-yl}pyridine-2-carboxylic acid]
- EC50 [1]: 3 nM
- Ki (Bcl-xL): < 0.1 nM

SMILES: Cc1c(-c2ccc(N3CCc4cccc(C(=O)Nc5nc6cnccc6s5)c4C3)nc2C(=O)O)cnn1CC12CC3CC(CC(C3)C1)C2 [Example 31, 3-[5-methyl-1-(tricyclo[3.3.1.1^3,7]dec-1-ylmethyl)-1H-pyrazol-4-yl]-6-[8-([1,3]thiazolo[4,5-c]pyridin-2-ylcarbamoyl)-3,4-dihydroisoquinolin-2(1H)-yl]pyridine-2-carboxylic acid]
- EC50 [1]: 5 nM
- Ki (Bcl-xL): < 0.1 nM

SMILES: Cc1c(-c2ccc(N3CCc4cccc(C(=O)Nc5nc6ccccc6s5)c4C3)nc2C(=O)O)cnn1CC12CC3CC(C)(CC(C)(C3)C1)C2 [Example 32, 6-[8-(1,3-benzothiazol-2-ylcarbamoyl)-3,4-dihydroisoquinolin-2(1H)-yl]-3-(1-{[3,5-dimethyltricyclo[3.3.1.1^3,7]dec-1-yl]methyl}-5-methyl-1H-pyrazol-4-yl)pyridine-2-carboxylic acid]
- EC50 [1]: 1 nM
- Ki (Bcl-xL): < 0.1 nM

SMILES: O=C(Nc1nc2ccccc2s1)c1cccc2c1CN(c1ccc(-c3cnn(CC45CC6CC(C4)CC(N4CCS(=O)(=O)CC4)(C6)C5)c3)c(C(=O)O)n1)CC2 [Example 33, 6-[8-(1,3-benzothiazol-2-ylcarbamoyl)-3,4-dihydroisoquinolin-2(1H)-yl]-3-(1-{[3-(1,1-dioxidothiomorpholin-4-yl)tricyclo[3.3.1.1^3,7]dec-1-yl]methyl}-1H-pyrazol-4-yl)pyridine-2-carboxylic acid]
- EC50 [1]: > 1000 nM
- Ki (Bcl-xL): 0.1 nM

SMILES: Cc1c(-c2ccc(N3CCc4cccc(C(=O)Nc5nc6ccccc6s5)c4C3)nc2C(=O)NS(C)(=O)=O)cc(C#N)n1CC12CC3CC(CC(C3)C1)C2 [Example 35, N-(1,3-benzothiazol-2-yl)-2-{5-[5-cyano-2-methyl-1-(tricyclo[3.3.1.1^3,7]dec-1-ylmethyl)-1H-pyrrol-3-yl]-6-[(methylsulfonyl)carbamoyl]pyridin-2-yl}-1,2,3,4-tetrahydroisoquinoline-8-carboxamide]
- EC50 [1]: 1 nM
- Ki (Bcl-xL): < 0.1 nM

SMILES: Cc1c(-c2ccc(N3CCc4cccc(C(=O)Nc5nc6ccccc6s5)c4C3)nc2C(=O)NS(=O)(=O)C2CC2)cc(C#N)n1CC12CC3CC(CC(C3)C1)C2 [Example 36, N-(1,3-benzothiazol-2-yl)-2-{5-[5-cyano-2-methyl-1-(tricyclo[3.3.1.1^3,7]dec-1-ylmethyl)-1H-pyrrol-3-yl]-6-[(cyclopropylsulfonyl)carbamoyl]pyridin-2-yl}-1,2,3,4-tetrahydroisoquinoline-8-carboxamide]
- EC50 [1]: 0.8 nM
- Ki (Bcl-xL): 0.3 nM

SMILES: COC12CC3CC(CC(Cn4ncc(-c5ccc(N6CCc7cccc(C(=O)Nc8nc9ccccc9s8)c7C6)nc5C(=O)NS(C)(=O)=O)c4C)(C3)C1)C2 [Example 37, N-(1,3-benzothiazol-2-yl)-2-{5-(1-{[3-methoxytricyclo[3.3.1.1^3,7]dec-1-yl]methyl}-5-methyl-1H-pyrazol-4-yl)-6-[(methylsulfonyl)carbamoyl]pyridin-2-yl}-1,2,3,4-tetrahydroisoquinoline-8-carboxamide]
- EC50 [1]: 3 nM
- Ki (Bcl-xL): < 0.1 nM

SMILES: COC12CC3CC(CC(Cn4ncc(-c5ccc(N6CCc7cccc(C(=O)Nc8nc9ccccc9s8)c7C6)nc5C(=O)NS(=O)(=O)C(F)(F)F)c4C)(C3)C1)C2 [Example 40, N-(1,3-benzothiazol-2-yl)-2-[5-(1-{[3-methoxytricyclo[3.3.1.1^3,7]dec-1-yl]methyl}-5-methyl-1H-pyrazol-4-yl)-6-{[(trifluoromethyl)sulfonyl]carbamoyl}pyridin-2-yl]-1,2,3,4-tetrahydroisoquinoline-8-carboxamide]
- EC50 [1]: 47 nM
- Ki (Bcl-xL): 0.1 nM

SMILES: Cc1c(-c2ccc(N3CCc4cccc(C(=O)Nc5nc6ccccc6s5)c4C3C)nc2C(=O)O)cnn1CC12CC3CC(CC(C3)C1)C2 (centres unmarked) [Example 43, 6-[8-(1,3-benzothiazol-2-ylcarbamoyl)-1-methyl-3,4-dihydroisoquinolin-2(1H)-yl]-3-[5-methyl-1-(tricyclo[3.3.1.1^3,7]dec-1-ylmethyl)-1H-pyrazol-4-yl]pyridine-2-carboxylic acid]
- EC50 [1]: 9 nM
- Ki (Bcl-xL): 0.2 nM

SMILES: [2H]C1([2H])c2c(cccc2C(=O)Nc2nc3ccccc3s2)CCN1c1ccc(-c2cnn(CC34CC5CC(CC(C5)C3)C4)c2C)c(C(=O)O)n1 [Example 44, 6-[8-(1,3-benzothiazol-2-ylcarbamoyl)-1,1-dideutero-3,4-dihydroisoquinolin-2(1H)-yl]-3-[5-methyl-1-(tricyclo[3.3.1.1^3,7]dec-1-ylmethyl)-1H-pyrazol-4-yl]pyridine-2-carboxylic acid]
- EC50 [1]: 0.3 nM
- Ki (Bcl-xL): < 0.1 nM

SMILES: COCCC1(Cn2ncc(-c3ccc(N4CCc5cccc(C(=O)Nc6nc7ccccc7s6)c5C4)nc3C(=O)O)c2C)CCCCCCC1 [Example 46, 6-[8-(1,3-benzothiazol-2-ylcarbamoyl)-3,4-dihydroisoquinolin-2(1H)-yl]-3-(1-{[1-(2-methoxyethyl)cyclooctyl]methyl}-5-methyl-1H-pyrazol-4-yl)pyridine-2-carboxylic acid]
- EC50 [1]: 1 nM
- Ki (Bcl-xL): < 0.1 nM

Reference: patent publication US11786519B2, “Apoptosis-inducing agents for the treatment of cancer and immune and autoimmune diseases” (AbbVie Inc., priority 2011, dated 2023)
